Data as given in patent publication US8153791B2, “Substituted pyrimidinyl oxime kinase inhibitors” (Janssen Pharmaceutica N.V., priority 2005, dated 2012).
Like-named read-outs stand apart in the source and are kept apart here.

Experiments:
[1] = tested on: HeLa cervical adenocarcinoma; assay: In vitro cell proliferation inhibition, HeLa; type: cell-based; conditions: Homo sapiens, read-out: HeLa IC50
Text: (§1) The ability of a test compound to inhibit unregulated in vitro cell proliferation may be determined by measuring incorporation of ^14C-labelled thymidine into newly synthesized DNA within cell lines derived from carcinomas originating from several tissues. Accordingly, the effect of a test compound on proliferation of cells with a variety of phenotypes may be determined.
(§2) Carcinoma cell lines used include the HeLa cervical adenocarcinoma from the American Type Culture Collection (ATCC Cat. #CCL2), SK-OV-3 ovarian carcinoma (ATCC Cat. #HTB-77), MCF-7 breast carcinoma (ATCC Cat. #HTB-22), BT474 breast carcinoma (ATCC Cat. #HTB-20), SKBR3 breast carcinoma (ATCC Cat. #HTB-30), A431 epidermoid carcinoma (ATCC Cat. #CRL-1555) and NCI-N87 gastric carcinoma (ATCC Cat. #CRL-5822).
(§3) The carcinoma cells are trypsinized and counted. The cells (3000-8000 count) are added to each well of a 96-well CytoStar tissue culture treated scintillating microplate (Amersham #RPNQ0160) in complete medium (100 μL) and the plate is then incubated in complete medium for 24 hrs at 37° C. in an inert atmosphere containing 5% CO2.
(§4) Test compound (1 μL) in 100% DMSO is added to the plate test-wells with DMSO only added to control-wells. The plate is incubated in complete medium for a second 24 hr period at 37° C. in an atmosphere containing 5% CO2.
(§5) An aliquot of a solution of Methyl ^14C-thymidine (56 mC/mmol) (NEN #NEC568 or Amersham #CFA532) and complete medium (20 μL to provide 0.2 μCi/well) is then added to each well and the plate is incubated for a third 24 hr period at 37° C. in an atmosphere containing 5% CO2.
(§6) The plate contents are then discarded, the plate is washed twice with PBS (200 μL) and then PBS (200 μL) is added to each well. The plate is sealed and the degree of methyl ^14C-thymidine incorporation is quantified on a Packard Top Count.
(§7) Cell proliferation of the Hela cell line was measured using the ATP-Lite method as described in the ATP Lite Kit (Perkin-Elmer Kit Number 6106941) or the C^14 method as described above. Cell proliferation of the other cell lines was measured using the C^14 method.
(§8) The term “NT” means that the compound indicated was not tested in a particular cell line. The lack of such testing is not intended to imply a belief that the compound is not otherwise active in a particular cell line or any other cell line not tested.

EGFR = target: T1, EGFR (Homo sapiens, UniProt P00533); assay: EGFR Kinase Assay; type: biochemical; conditions: for inhibition at 2 µM: test concentration of 2 μM;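 on all read-outs here: recombinant GST-tagged EGFR expressed in Sf9 cells, phosphorylating biotinylated polyGluTyr with γ-33P ATP on Streptavidin Flashplates, 1 h at 30 °C, scintillation counting, inhibition relative to plate maximum and minimum signals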
T1 construct: The intracellular portion of EGFR started at nucleotide 2189 (corresponding to amino acid 667) and ended at the termination codon; made in house; host or cells: Sf9 insect cells (baculovirus)

HER-2 = target: T2, HER-2 (Homo sapiens, UniProt P04626); assay: HER-2 Kinase Assay; type: biochemical; conditions: for IC50: read-out: HER2 IC50;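 on all read-outs here: HER2 kinase reaction read by scintillation counting, inhibition scaled between maximum and minimum signals set on each plate, IC50 from inhibition against log concentration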
T2 construct: purchased Proqinase (Freiburg, Germany)

BT474 breast carcinoma = assay: In vitro cell proliferation inhibition, BT474; type: cell-based; conditions: Homo sapiens, BT-474; BT474 cells, 14C-thymidine incorporation; read-out: IC50 BT474
Text: as §1, §2, §3, §4, §5, §6, §7, §8

SKBR3 breast carcinoma = assay: In vitro cell proliferation inhibition, SKBR3; type: cell-based; conditions: Homo sapiens, SK-BR-3; SKBR3 cells, 14C-thymidine incorporation; read-out: IC50 SKBR3
Text: as §1, §2, §3, §4, §5, §6, §7, §8

[2] = tested on: A431 epidermoid carcinoma; assay: In vitro cell proliferation inhibition, A431; type: cell-based; conditions: Homo sapiens, A-431; A431 cells, 14C-thymidine incorporation; read-out: IC50 A431
Text: as §1, §2, §3, §4, §5, §6, §7, §8

[3] = tested on: NCI-N87 gastric carcinoma; assay: In vitro cell proliferation inhibition, NCI-N87; type: cell-based; conditions: Homo sapiens, NCI-N87; N87 cells, 14C-thymidine incorporation; read-out: IC50 N87
Text: as §1, §2, §3, §4, §5, §6, §7, §8

[4] = HeLa cell line, ATP-Lite method or C14 thymidine method

T1 sequence (P00533 669-1210 limits assumed): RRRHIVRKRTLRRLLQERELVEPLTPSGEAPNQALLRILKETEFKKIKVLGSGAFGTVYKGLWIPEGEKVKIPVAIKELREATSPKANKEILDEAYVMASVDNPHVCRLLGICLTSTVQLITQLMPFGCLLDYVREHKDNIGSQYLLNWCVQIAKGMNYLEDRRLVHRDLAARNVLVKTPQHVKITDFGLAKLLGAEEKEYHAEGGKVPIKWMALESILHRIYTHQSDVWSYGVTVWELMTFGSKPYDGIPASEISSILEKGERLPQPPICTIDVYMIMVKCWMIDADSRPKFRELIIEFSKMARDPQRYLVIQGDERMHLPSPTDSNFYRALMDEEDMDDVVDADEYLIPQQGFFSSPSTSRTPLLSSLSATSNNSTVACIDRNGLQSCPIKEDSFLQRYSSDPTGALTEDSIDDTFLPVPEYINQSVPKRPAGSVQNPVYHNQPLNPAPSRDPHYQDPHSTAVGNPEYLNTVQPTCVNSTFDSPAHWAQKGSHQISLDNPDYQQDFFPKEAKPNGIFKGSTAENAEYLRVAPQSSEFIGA
T2 sequence (P04626 679-1255): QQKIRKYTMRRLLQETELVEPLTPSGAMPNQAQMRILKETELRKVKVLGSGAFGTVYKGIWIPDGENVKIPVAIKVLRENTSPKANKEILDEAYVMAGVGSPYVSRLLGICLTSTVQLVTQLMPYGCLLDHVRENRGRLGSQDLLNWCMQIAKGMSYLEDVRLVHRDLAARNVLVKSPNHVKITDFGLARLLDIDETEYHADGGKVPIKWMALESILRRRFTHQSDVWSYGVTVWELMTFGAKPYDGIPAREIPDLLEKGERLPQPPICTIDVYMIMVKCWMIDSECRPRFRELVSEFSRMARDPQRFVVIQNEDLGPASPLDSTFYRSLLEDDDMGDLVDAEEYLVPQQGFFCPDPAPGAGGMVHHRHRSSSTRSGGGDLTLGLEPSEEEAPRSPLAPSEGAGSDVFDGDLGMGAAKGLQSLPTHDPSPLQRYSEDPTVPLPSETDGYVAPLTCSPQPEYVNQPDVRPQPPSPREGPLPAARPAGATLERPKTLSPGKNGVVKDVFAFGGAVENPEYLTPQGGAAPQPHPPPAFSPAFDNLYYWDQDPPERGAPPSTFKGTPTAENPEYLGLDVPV

IC50 [1, 4] [µM] | IC50 (EGFR) [µM] | IC50 (HER-2) [µM] | SMILES | other results
3.6 | – | – | CO/N=C\c1c(N)ncnc1Nc1ccc(Br)cc1F [Cpd 83] | –
100 | 0.07 | 0.2 | Nc1ncnc(Nc2ccc(OCc3cc(F)cc(F)c3)c(Cl)c2)c1/C=N/OCCN1CCOCC1 [Cpd 99, (5E)-4-amino-6-[3-chloro-4-(3,5-difluoro-benzyloxy)-phenylamino]-pyrimidine-5-carbaldehyde O-(2-morpholin-4-yl-ethyl)-oxime] | IC50 (BT474 breast carcinoma): 10 µM; IC50 (SKBR3 breast carcinoma): 100 µM; IC50 [2]: 100 µM; IC50 [3]: 100 µM
10 | 0.2 | 1.1 | Nc1ncnc(Nc2ccc(F)c(Cl)c2)c1/C=N/OCCN1CCOCC1 [Cpd 108] | –
10 | – | – | CO/N=C/c1c(N)ncnc1Nc1ccc(NC(=O)c2ccccc2)cc1 [Cpd 104] | –
33.1 | – | – | CO/N=C/c1c(N)ncnc1Nc1cnc(NC(=O)c2ccccc2)nc1 [Cpd 110] | –
100 | 0.3 | – | CO/N=C/c1c(N)ncnc1Nc1ccc(Cl)cc1F [Cpd 80] | –
100 | – | 1 | CO/N=C/c1c(N)ncnc1Nc1ccc(OCc2cc(F)cc(F)c2)c(Cl)c1 [Cpd 97, (5E)-4-amino-6-[3-chloro-4-(3,5-difluoro-benzyloxy)-phenylamino]-pyrimidine-5-carbaldehyde O-methyl-oxime] | –
10 | – | – | C[C@H](Nc1ncnc(N)c1/C=N/OCCN1CCOCC1)c1ccccc1 [Cpd 103] | –
100 | 0.2 | – | CO/N=C/c1c(N)ncnc1Nc1ccc(Br)cc1F [Cpd 82] | –
10.9 | 0.009 | 0.02 | Nc1ncnc(Nc2ccc3c(ccn3Cc3cccc(F)c3)c2)c1/C=N/O [Cpd 88, (5E)-4-amino-6-[1-(3-fluoro-benzyl)-1H-indol-5-ylamino]-pyrimidine-5-carbaldehyde oxime] | –
100 | – | – | Nc1ncnc(Nc2ccc(NC(=O)c3ccccc3)cc2)c1/C=N/O [Cpd 105] | –
100 | 0.008 | 0.01 | Nc1ncnc(Nc2ccc(OCc3cccc(F)c3)c(Cl)c2)c1/C=N/O [Cpd 79, (5E)-4-amino-6-[3-chloro-4-(3-fluoro-benzyloxy)-phenylamino]-pyrimidine-5-carbaldehyde oxime] | –
10 | – | – | CO/N=C\c1c(N)ncnc1Nc1ccc(Cl)cc1F [Cpd 81] | –
100 | – | – | Nc1ncnc(Nc2ccc(NC(=O)c3ccccc3)cc2)c1/C=N/OCCN1CCOCC1 [Cpd 107] | –
10 | – | – | C[C@H](Nc1ncnc(N)c1/C=N/OCCN1CCCCC1)c1ccccc1 [Cpd 106] | –
10 | – | – | CO/N=C\c1c(N)ncnc1Nc1cc(O)c(Cl)cc1F [Cpd 90] | –
10 | 0.02 | – | C[C@H](Nc1ncnc(N)c1/C=N/O)c1ccccc1 [Cpd 100, (5E)-4-amino-6-[(1S)-1-phenyl-ethylamino]-pyrimidine-5-carbaldehyde oxime] | –
10 | – | – | CO/N=C/c1c(N)ncnc1Nc1cc(O)c(Cl)cc1F [Cpd 89] | –

IC50 [1, 4] [µM] | IC50 (EGFR) [µM] | IC50 (HER-2) [µM] | SMILES | other results
10 | 0.02 | 0.1 | Nc1ncnc(Nc2ccc(OCc3ccccc3)c(Cl)c2)c1/C=N/O [Cpd 77, (5E)-4-amino-6-(4-benzyloxy-3-chloro-phenylamino)-pyrimidine-5-carbaldehyde oxime] | –
100 | – | – | Nc1ncnc(Nc2ccc(Oc3ccccc3)cc2)c1/C=N/OCCN1CCOCC1 [Cpd 109] | –
100 | – | – | Nc1ncnc(Nc2ccc3c(cnn3Cc3cccc(F)c3)c2)c1/C=N/OCc1ccccc1 [Cpd 46, (5E)-4-amino-6-[1-(3-fluoro-benzyl)-1H-indazol-5-ylamino]-pyrimidine-5-carbaldehyde O-benzyl-oxime] | IC50 (BT474 breast carcinoma): 0.1 µM; IC50 (SKBR3 breast carcinoma): 0.3 µM; IC50 [2]: 100 µM; IC50 [3]: 10 µM
4.9 | – | – | Nc1ncnc(Nc2ccc3c(cnn3Cc3cccc(F)c3)c2)c1/C=N/O [Cpd 84, (5E)-4-amino-6-[1-(3-fluoro-benzyl)-1H-indazol-5-ylamino]-pyrimidine-5-carbaldehyde oxime] | –
– | 0.03 | 0.3 | CO/N=C/c1c(N)ncnc1Nc1ccc(OCc2ccccc2)cc1 [Cpd 25, (5E)-4-amino-6-(4-benzyloxy-phenylamino)-pyrimidine-5-carbaldehyde O-methyl-oxime] | –
– | 0.008 | 0.01 | C=CCO/N=C/c1c(N)ncnc1Nc1ccc2c(cnn2Cc2cccc(F)c2)c1 [Cpd 11, (5E)-4-amino-6-[1-(3-fluoro-benzyl)-1H-indazol-5-ylamino]-pyrimidine-5-carbaldehyde O-allyl-oxime] | –
– | – | – | CON=Cc1c(N)ncnc1NC1CCCc2ccccc21 (stereo not shown) [Cpd 125, 4-amino-6-(1,2,3,4-tetrahydro-naphthalen-1-ylamino)-pyrimidine-5-carbaldehyde O-methyl-oxime] | inhibition at 2 µM (EGFR): 42%; inhibition at 1 µM (HER-2; test concentration of 1 μM, read-out: HER2 % inhibition): 25%
– | 0.01 | 0.05 | COCCO/N=C/c1c(N)ncnc1Nc1ccc(OCc2ccccc2)c(Cl)c1 [Cpd 71, (5E)-4-amino-6-(4-benzyloxy-3-chloro-phenylamino)-pyrimidine-5-carbaldehyde O-(2-methoxy-ethyl)-oxime] | –
– | – | 1.82 | CON=Cc1c(N)ncnc1Nc1ccc(Oc2ccccc2)nc1 [Cpd 128, 4-amino-6-(6-phenoxy-pyridin-3-ylamino)-pyrimidine-5-carbaldehyde O-methyl-oxime] | inhibition at 2 µM (EGFR): 45%
– | – | > 100 | CON=Cc1c(N)ncnc1Nc1ccc(N2CCOCC2)nc1 [Cpd 129, 4-amino-6-(6-morpholin-4-yl-pyridin-3-ylamino)-pyrimidine-5-carbaldehyde O-methyl-oxime] | inhibition at 2 µM (EGFR): 1%
– | 1.2 | 14.1 | CO/N=C/c1c(N)ncnc1Nc1ccc2c(c1)CCC2 [Cpd 20] | –
– | – | 2.46 | CON=Cc1c(N)ncnc1NC1CCc2ccccc21 (stereo not shown) [Cpd 124, 4-amino-6-(indan-1-ylamino)-pyrimidine-5-carbaldehyde O-methyl-oxime] | inhibition at 2 µM (EGFR): 26%
100 | – | – | CO/N=C/c1c(NOC)ncnc1Nc1ccc(Br)cc1F [Cpd 86] | –
– | 0.1 | 0.3 | Nc1ncnc(Nc2ccc(Oc3ccccc3)cc2)c1/C=N/O [Cpd 111, (5E)-4-amino-6-(4-phenoxy-phenylamino)-pyrimidine-5-carbaldehyde oxime] | –
100 | 0.02 | 0.1 | Nc1ncnc(Nc2ccc(OCc3cc(F)cc(F)c3)c(Cl)c2)c1/C=N/O [Cpd 98, (5E)-4-amino-6-[3-chloro-4-(3,5-difluoro-benzyloxy)-phenylamino]-pyrimidine-5-carbaldehyde oxime] | –
– | 0.02 | 0.3 | Nc1ncnc(Nc2ccc3c(cnn3Cc3cccc(F)c3)c2)c1/C=N/OCCOc1ccccc1 [Cpd 31, (5E)-4-amino-6-[1-(3-fluoro-benzyl)-1H-indazol-5-ylamino]-pyrimidine-5-carbaldehyde O-(2-phenoxy-ethyl)-oxime] | –
– | 0.02 | 0.6 | CCO/N=C/c1c(N)ncnc1Nc1ccc2[nH]ccc2c1 [Cpd 17, (5E)-4-amino-6-(1H-indol-5-ylamino)-pyrimidine-5-carbaldehyde O-ethyl-oxime] | –

SMILES | IC50 [1, 4] [µM] | IC50 (EGFR) [µM] | IC50 (HER-2) [µM] | other results
Nc1ncnc(Nc2ccc3c(cnn3Cc3cccc(F)c3)c2)c1/C=N/OCCCO [Cpd 85, (5E)-4-amino-6-[1-(3-fluoro-benzyl)-1H-indazol-5-ylamino]-pyrimidine-5-carbaldehyde O-(3-hydroxy-propyl)-oxime] | – | 0.02 | 0.02 | IC50 ([1]; HeLa): 15.6 µM
